Several values for one entry are separate records, joined by “and”; a condition that tells them apart may be missing. Identical values can stand only once. Marks after values point to notes of the source that are not given here.
Columns and labels:
Type in all cases: cell-based
A549 lung cancer cells = test: MTT cell growth and proliferation experiment, A549; design: key to Inhibition Rate: (control OD570 − test OD570)/control OD570, as fraction; details: for Inhibition Rate: fraction
Procedure, shortened: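 Cells in DMEM/10% calf serum were treated with retinoic acid derivatives at 1, 5 and 10 ug/ml (DMSO <0.1%) for 3 d, then with MTT for 4 h at 37° C. Read-out was OD570 after DMSO solubilisation, giving % growth inhibition versus control wells. A time-course at 10 umol/L ran for 1, 2, 3 and 7 days.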

liver cancer HepG2 cells = test: MTT cell growth and proliferation experiment, HepG2; design: key to Inhibition Rate: (control OD570 − test OD570)/control OD570, as fraction; details: for Inhibition Rate: fraction
Procedure, shortened: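 After treatment, 20 ul/well of MTT (5 g/L) was added for 4 h at 37° C. The medium was then removed and 20 ul/well DMSO added to dissolve the crystals. Plates were shaken 10 min and read at 570 nm. Inhibition rate was (control OD570 − experimental OD570)/control OD570 × 100%, averaged over three experiments.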

A549 cells = test: Differentiation index: CEA secretory volume of A549 cells; details: A549 culture supernatant, 10 ug/ml, 3 d
Method: 1.6 Detection of Differentiation Index The cultured A549 cells are randomly divided into 6 10 μg/ml drug groups, cell control groups, solvent control groups (DMSO and ethanol) and 10 μg/ml fenretinide control groups (11 in total). The control groups and drug groups are cultured for 3 days to collect respective 3 tubes of cell culture solutions which are centrifugated at a speed of 4000 r/min for 5 min to take the supernatant and detect the CEA content of the kit by using enzyme kinetics and CEA detection.

HepG2 cells [1] = test: AFP secretory volume of HepG2 cells; details: for AFP: HepG2 cells
HepG2 cells [2] = test: γ-GT specific activity of HepG2 cells
HepG2 cells [3] = test: Cell cycle and apoptosis by flow cytometry, HepG2; details: for Apoptosis Rate (%) / G0-G1 (%) / G2-M (%) / S %: HepG2, flow cytometry
NB4 cells = test: Cell cycle analysis by flow cytometer, NB4; design: S %: dose or concentration left out as unconfirmed; details: 72 h
Procedure, shortened: (§1)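 NB4 and K562 cells in RPMI1640 with 10% FBS were exposed to compounds […] for 72 h. Then they were fixed in 70% cold ethanol and stained with 5 ug/ml propidium iodide for cell-cycle profiling by flow cytometry.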

K562 cells = test: Cell cycle analysis by flow cytometer, K562; design: S %: dose or concentration left out as unconfirmed; details: 72 h
Procedure, shortened: as §1

[4] = A549, MTT time gradient, in DMSO, 1 d, concentration not given
[5] = A549, MTT time gradient, in DMSO, 2 d, concentration not given
[6] = A549, MTT time gradient, in DMSO, 3 d, concentration not given
[7] = A549, MTT time gradient, in DMSO, 7 d, concentration not given
[8] = A549, MTT time gradient, in ethanol, 1 d, concentration not given
[9] = A549, MTT time gradient, in ethanol, 2 d, concentration not given
[10] = A549, MTT time gradient, in ethanol, 3 d, concentration not given
[11] = A549, MTT time gradient, in ethanol, 7 d, concentration not given
[12] = A549, MTT, 3 d, Table 1 control drug in DMSO, concentration not given
[13] = A549, MTT, 3 d, Table 1 control drug in ethanol, concentration not given
[14] = HepG2, MTT time gradient, in DMSO, 1 d, concentration not given
[15] = HepG2, MTT time gradient, in DMSO, 2 d, concentration not given
[16] = HepG2, MTT time gradient, in DMSO, 3 d, concentration not given
[17] = HepG2, MTT time gradient, in DMSO, 7 d, concentration not given
[18] = HepG2, MTT time gradient, in ethanol, 1 d, concentration not given
[19] = HepG2, MTT time gradient, in ethanol, 2 d, concentration not given
[20] = HepG2, MTT time gradient, in ethanol, 3 d, concentration not given
[21] = HepG2, MTT, 3 d, Table 3 control drug in DMSO, concentration not given
[22] = HepG2, MTT, 3 d, Table 3 control drug in ethanol, concentration not given
[23] = HepG2, Table 5 repeat MTT, 3 days, DMSO, concentration not given
[24] = HepG2, Table 5 repeat MTT, 3 days, ethanol, concentration not given
[25] = A549, MTT time gradient, 10 ug/ml, 1 d
[26] = A549, MTT time gradient, 10 ug/ml, 2 d
[27] = A549, MTT time gradient, 10 ug/ml, 3 d
[28] = A549, MTT time gradient, 10 ug/ml, 7 d
[29] = HepG2, MTT time gradient, 10 ug/ml, 1 d
[30] = HepG2, MTT time gradient, 10 ug/ml, 2 d
[31] = HepG2, MTT time gradient, 10 ug/ml, 3 d
[32] = HepG2, MTT time gradient, 10 ug/ml, 7 d
[33] = HepG2, Table 5 repeat MTT, 10 ug/ml, 3 days, ethanol

CC1=C(/C=C/C(C)=C/C=C/C(C)=C/C(=O)Nc2ccc(O)cc2)C(C)(C)CCC1 [Fenretinide, reference compound]
OD Value (x ± s) (A549 lung cancer cells; [4]): 0.883 ± 0.062
Inhibition Rate (A549 lung cancer cells; [4]): 0.037
OD Value (x ± s) (A549 lung cancer cells; [5]): 1.360 ± 0.052
Inhibition Rate (A549 lung cancer cells; [5]): 0.070
OD Value (x ± s) (A549 lung cancer cells; [6]): 0.845 ± 0.034
Inhibition Rate (A549 lung cancer cells; [6]): 0.089
OD Value (x ± s) (A549 lung cancer cells; [7]): 1.835 ± 0.030
Inhibition Rate (A549 lung cancer cells; [7]): 0.115
OD Value (x ± s) (A549 lung cancer cells; [8]): 0.887 ± 0.057
Inhibition Rate (A549 lung cancer cells; [8]): 0.033
OD Value (x ± s) (A549 lung cancer cells; [9]): 1.333 ± 0.046
Inhibition Rate (A549 lung cancer cells; [9]): 0.089
OD Value (x ± s) (A549 lung cancer cells; [10]): 0.836 ± 0.034
Inhibition Rate (A549 lung cancer cells; [10]): 0.099
OD Value (x ± s) (A549 lung cancer cells; [11]): 1.851 ± 0.030
Inhibition Rate (A549 lung cancer cells; [11]): 0.108
OD Value (x ± s) (A549 lung cancer cells; [12]): 1.724 ± 0.080
Inhibition Rate (A549 lung cancer cells; [12]): 0.076
OD Value (x ± s) (A549 lung cancer cells; [13]): 1.710 ± 0.056
Inhibition Rate (A549 lung cancer cells; [13]): 0.083
OD Value (x ± s) (liver cancer HepG2 cells; [14]): 1.61 ± 0.16
Inhibition Rate (liver cancer HepG2 cells; [14]): 0.09
OD Value (x ± s) (liver cancer HepG2 cells; [15]): 1.37 ± 0.07
Inhibition Rate (liver cancer HepG2 cells; [15]): 0.19
OD Value (x ± s) (liver cancer HepG2 cells; [16]): 1.07 ± 0.20
Inhibition Rate (liver cancer HepG2 cells; [16]): 0.13
OD Value (x ± s) (liver cancer HepG2 cells; [17]): 1.17 ± 0.06
Inhibition Rate (liver cancer HepG2 cells; [17]): 0.14
OD Value (x ± s) (liver cancer HepG2 cells; [18]): 1.67 ± 0.05
Inhibition Rate (liver cancer HepG2 cells; [18]): 0.05
OD Value (x ± s) (liver cancer HepG2 cells; [19]): 1.31 ± 0.09
Inhibition Rate (liver cancer HepG2 cells; [19]): 0.22
OD Value (x ± s) (liver cancer HepG2 cells; [20]): 1.06 ± 0.09
Inhibition Rate (liver cancer HepG2 cells; [20]): 0.14
OD Value (x ± s) (liver cancer HepG2 cells; [21]): 1.27 ± 0.25
Inhibition Rate (liver cancer HepG2 cells; [21]): 0.25
OD Value (x ± s) (liver cancer HepG2 cells; [22]): 1.28 ± 0.21
Inhibition Rate (liver cancer HepG2 cells; [22]): 0.24
OD Value (x ± s) (liver cancer HepG2 cells; [23]): 1.469 ± 0.078
Inhibition Rate (liver cancer HepG2 cells; [23]): 0.322*
OD Value (x ± s) (liver cancer HepG2 cells; [24]): 1.422 ± 0.123
Inhibition Rate (liver cancer HepG2 cells; [24]): 0.343*
CEA (A549 cells; DMSO): 4.5 µg/L
CEA (A549 cells; ethanol): 4.3 µg/L
AFP (HepG2 cells [1]; DMSO): 15.1 µg/L
AFP (HepG2 cells [1]; ethanol): 14.9 µg/L
γ-GT (HepG2 cells [2]; DMSO): 66.6 ± 0.5 U/L
γ-GT (HepG2 cells [2]; ethanol): 61.0 ± 1.0 U/L
Apoptosis Rate (%) (HepG2 cells [3]; in DMSO): 5.71%
G0-G1 (%) (HepG2 cells [3]; in DMSO): 67.3%
G2-M (%) (HepG2 cells [3]; in DMSO): 7.64%
S % (HepG2 cells [3]; in DMSO): 19.8%
Apoptosis Rate (%) (HepG2 cells [3]; in ethanol): 10.6%
G0-G1 (%) (HepG2 cells [3]; in ethanol): 60.0%
G2-M (%) (HepG2 cells [3]; in ethanol): 5.69%
S % (HepG2 cells [3]; in ethanol): 24.1%
G1 % (NB4 cells): 63.25%
G2 % (NB4 cells): 4.03%
S % (NB4 cells): 33.72%
G1 % (K562 cells): 33.5%
G2 % (K562 cells): 9.0%
S % (K562 cells): 57.5%

CC1=C(/C=C/C(C)=C/C=C/C(C)=C/C(=O)Oc2ccc(N)cc2C(F)(F)F)C(C)(C)CCC1 [Example 4a-02, (4-amino-2-trifluoromethylphenyl)-(all-trans)-3,7-dimethyl-9-(2,6,6-trimethyl-1-cyclohexen-1-yl)-2,4,6,8-nonatetraenoate]
OD Value (x ± s) (A549 lung cancer cells; A549, MTT OD 570 nm, 1 ug/ml, 3 d, solvent DMSO (D)): 1.644 ± 0.272 and 2.020 ± 0.317
OD Value (x ± s) (A549 lung cancer cells; A549, MTT OD 570 nm, 5 ug/ml, 3 d, solvent DMSO (D)): 1.618 ± 0.087 and 1.979 ± 0.138
OD Value (x ± s) (A549 lung cancer cells; A549, MTT OD 570 nm, 10 ug/ml, 3 d, solvent DMSO (D)): 1.808 ± 0.143
OD Value (x ± s) (A549 lung cancer cells; [25]): 0.815 ± 0.045
Inhibition Rate (A549 lung cancer cells; [25]): 0.111
OD Value (x ± s) (A549 lung cancer cells; [26]): 1.176 ± 0.021
Inhibition Rate (A549 lung cancer cells; [26]): 0.196
OD Value (x ± s) (A549 lung cancer cells; [27]): 0.720 ± 0.025
Inhibition Rate (A549 lung cancer cells; [27]): 0.223
OD Value (x ± s) (A549 lung cancer cells; [28]): 1.144 ± 0.150
Inhibition Rate (A549 lung cancer cells; [28]): 0.448
OD Value (x ± s) (liver cancer HepG2 cells; HepG2, MTT OD 570 nm, 1 ug/ml, 3 d, solvent not given): 1.50 ± 0.24
OD Value (x ± s) (liver cancer HepG2 cells; HepG2, MTT OD 570 nm, 5 ug/ml, 3 d, solvent not given): 1.32 ± 0.50
OD Value (x ± s) (liver cancer HepG2 cells; HepG2, MTT OD 570 nm, 10 ug/ml, 3 d, solvent not given): 0.86 ± 0.13
OD Value (x ± s) (liver cancer HepG2 cells; [29]): 1.53 ± 0.27
Inhibition Rate (liver cancer HepG2 cells; [29]): 0.11
OD Value (x ± s) (liver cancer HepG2 cells; [30]): 1.36 ± 0.13
Inhibition Rate (liver cancer HepG2 cells; [30]): 0.20
OD Value (x ± s) (liver cancer HepG2 cells; [31]): 0.74 ± 0.08
Inhibition Rate (liver cancer HepG2 cells; [31]): 0.46
OD Value (x ± s) (liver cancer HepG2 cells; [32]): 0.70 ± 0.05
Inhibition Rate (liver cancer HepG2 cells; [32]): 0.48
Inhibition Rate (liver cancer HepG2 cells; HepG2, MTT, 1 ug/ml, 3 d, solvent not given): 0.11
Inhibition Rate (liver cancer HepG2 cells; HepG2, MTT, 5 ug/ml, 3 d, solvent not given): 0.22
Inhibition Rate (liver cancer HepG2 cells; HepG2, MTT, 10 ug/ml, 3 d, solvent not given): 0.49
OD Value (x ± s) (liver cancer HepG2 cells; [33]): 1.409 ± 0.090
Inhibition Rate (liver cancer HepG2 cells; [33]): 0.349*
CEA (A549 cells; DMSO): 3.1 µg/L
effects on AFP secretory volume (statistics, in words) (HepG2 cells [1]; HepG2, compared with the control groups, P less than 0.05): meaningful in statistics
AFP (HepG2 cells [1]; ethanol): 10.4* ug/L
γ-GT (HepG2 cells [2]; ethanol): 32.6 ± 1.5 U/L
effect on the apoptosis of HepG2 cells (ranking in words) (HepG2 cells [3]; HepG2): most greatly effects on the apoptosis of HepG2 cells
Apoptosis Rate (%) (HepG2 cells [3]): 38.1* %
G0-G1 (%) (HepG2 cells [3]): 30.9%
G2-M (%) (HepG2 cells [3]): 3.20%
S % (HepG2 cells [3]): 28.5%
G1 % (NB4 cells): 52.59%
G2 % (NB4 cells): 7.68%
S % (NB4 cells): 39.73%
G1 % (K562 cells): 33.1%
G2 % (K562 cells): 11.5%
S % (K562 cells): 55.4%
